How the values were obtained:
[1] = Ex vivo stability in mouse blood (remaining MMP-9 inhibitory activity); type: in vitro ADME; conditions: 500 µM in freshly isolated mouse blood, 37 °C; plasma and cell lysates
Method: Toxicity of compounds 5 and 7 was evaluated in vitro on the U-87 cell line. Briefly, U-87 cells were seeded in 96-well plates (cat. No. 92096, TPP Techno Plastic Products, Trasadingen, Switzerland) at 2000 cells/well in DMEM FluoroBrite containing 10% FBS and incubated for 24 h. Cells were washed and further grown in DMEM FluoroBrite with 5% KnockOut™ Serum Replacement (Gibco, Waltham, MA, USA). Compounds 5 and 7 were added to the wells in a 1:2 dilution series starting at 20 µM and ending at 0.16 µM. To evaluate the effect of the compound on cell growth, confluence was determined every hour for 17h using the Incucyte® S3 Live-Cell Analysis System (Sartorius, Göttingen, Germany). Next, cells were stained with the LIVE/DEAD™ Viability/Cytotoxicity Kit for mammalian cells (Invitrogen, Carlsbad, CA, USA; cat. # L3224) and cell viability was evaluated. Data were normalized to the mean confluence of wells containing no inhibitors. To measure the stability of the compounds, fresh blood was collected from heathy mice by cardiac puncture with a heparin-coated needle and syringe and 30UI/mL heparin was added. Next, compound 5, compound 7 or vehicle (DMSO) was added to the blood at a final concentration of 500 µM and incubated at 37 °C. […] Background inhibition was subtracted and results were expressed as percentage inhibition.

[2] = biological target: T1, recombinant human MMP-9 monomers (Homo sapiens, UniProt P14780); assay: Fluorogenic peptide (OmniMMP) degradation assay, recombinant MMP-9 monomers; type: biochemical; conditions: recombinant human MMP-9 (Sf9) mono
T1 construct: made in house; host or cells: Sf9 insect cells
T1 sequence (P14780 107-707 limits assumed): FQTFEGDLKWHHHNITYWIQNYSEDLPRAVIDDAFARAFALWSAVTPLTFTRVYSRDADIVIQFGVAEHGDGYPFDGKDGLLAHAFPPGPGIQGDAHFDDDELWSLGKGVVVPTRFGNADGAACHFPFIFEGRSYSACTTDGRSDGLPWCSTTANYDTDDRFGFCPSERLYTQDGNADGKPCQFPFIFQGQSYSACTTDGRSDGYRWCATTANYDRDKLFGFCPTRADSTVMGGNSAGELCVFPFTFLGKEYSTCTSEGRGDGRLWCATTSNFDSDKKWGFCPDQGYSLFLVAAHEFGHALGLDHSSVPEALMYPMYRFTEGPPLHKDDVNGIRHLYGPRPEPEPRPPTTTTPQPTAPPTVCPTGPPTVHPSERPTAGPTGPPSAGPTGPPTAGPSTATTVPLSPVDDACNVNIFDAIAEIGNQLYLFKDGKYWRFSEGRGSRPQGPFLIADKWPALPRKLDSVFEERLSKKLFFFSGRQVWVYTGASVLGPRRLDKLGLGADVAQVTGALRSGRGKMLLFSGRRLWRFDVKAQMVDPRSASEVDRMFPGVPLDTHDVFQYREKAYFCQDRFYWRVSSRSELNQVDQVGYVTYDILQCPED
Method: (§1) Compounds 5 and 7 were synthesized as previously reported. Full-length human proMMP-9 was produced by recombinant expression in Sf9 insect cells and purified by gelatin-Sepharose chromatography as previously described. Stable full-length proMMP-9 monomers and trimers were separated by glycerol gradient ultracentrifugation as previously described. ProMMP-9 mixture and the separated monomers and trimers were activated by incubation with the catalytic domain of MMP-3 (cat. No. 444217, Merck Millipore, Darmstadt, Germany) as previously described. Activation of proMMP-9 was confirmed by a band shift of ±10 kDa, corresponding to the removal of the auto-inhibitory propeptide domain and by detection of gelatinolytic activity with a previously described gelatin degradation assay. MMP-9 monomers and trimers purified from human neutrophils were purchased (Cat. No. 444,231 and 444232, Sigma-Aldrich, St. Louis, MO, USA). Examples of sample purities and activations can be found in Supplementary Figure S1. Recombinant human proMMP-2 (CHO cell-derived), proMMP-3 (NS0 cell-derived), proMMP-7 (NS0 cell-derived) and proMMP-8 (NS0 cell-derived) were purchased from R & D systems (Minneapolis, MN, USA), dissolved in assay buffer (150 mM NaCl, 5 mM CaCl2, 0.01% Tween-20, 50 mM Tris, pH 7.4) to a concentration of 100 µg/mL and activated by incubation with 1 mM p-aminophenylmercuric acetate for, respectively, 1h, 6h, 2h and 1h. Activation of MMPs was confirmed by a band shift of approximately 10 kDa, corresponding to the removal of the propeptide domain. MMP-14/MT1-MMP (NS0 cell-derived) was also purchased from R & D systems (Minneapolis, MN, USA) and activated by incubation with recombinant human furin (cat. No. 1503-SE-010, R & D systems, Minneapolis, MO, USA) in activation buffer (50 mM Tris, 1 mM CaCl2, 0.5% Brij-35, pH 9) for 1.5 h and activity was tested in assay buffer (50 mM Tris, 3 mM CaCl2, 1 µM ZnCl2, pH 8.5). Active human neutrophil elastase (NE) was purchased from Abcam (Cambridge, UK) and for activity assays of NE the assay buffer was replaced by 200 mM Tris, pH 8.8. ADAM17/TACE (Sf 21 (baculovirus)-derived, R & D systems, Minneapolis, MO, USA) was diluted and evaluated in 25 mM Tris, 2.5 μM ZnCl2, 0.005% Brij-35, pH 9.0. All stocks of the compounds were evaluated for the presence of endotoxin using the EndoZyme II assay (Hyglos bioMérieux, Bernried am Starnberger See, Germany). Endotoxin levels in all concentrated stocks (2.5 mg/mL) were below the accepted limit of 0.5 EU/mL.
To determine the inhibition of gelatinolytic activity, we used a previously optimized gelatin degradation assay. […] […] […] BML-P126-0001, Enzo Life Sciences, Farmingdale, NY, USA) was used at a final concentration of 2.5 µg/mL. For ADAM17 the fluorogenic peptide Mca-PLAQAV-Dpa-RSSSR-NH2 (ES003, R & D systems, Minneapolis, MO, USA) and for neutrophil elastase the fluorogenic substrate MeOSuc-AAPV-AMC (cat. no. 324740, Merck Millipore, Darmstadt, Germany) were used. Proteolytic activity was determined by linear regression of the fluorescence curve and the percentage inhibition was calculated through comparison with the positive control (no inhibitors). When testing supernatants from human neutrophils, the assay was performed in the presence of 20 µM neutrophil elastase inhibitor (Elastase Inhibitor IV, Calbiochem, Darmstadt, Germany).

[3] = biological target: T2, recombinant human MMP-9 mixture (± 70% monomers and ± 30% trimers) (Homo sapiens, UniProt P14780); assay: Gelatin degradation assay, recombinant MMP-9 mixture; type: biochemical; conditions: recombinant human MMP-9 (Sf9) mix, best-fit value
T2 construct: made in house; host or cells: Sf9 insect cells
T2 sequence (P14780 107-707 limits assumed): as above
Method: as §1
To determine the inhibition of gelatinolytic activity, we used a previously optimized gelatin degradation assay. Activated MMP-9, activated MMP-2, neutrophil elastase or supernatants of stimulated neutrophils, were incubated with different concentrations of inhibitors and incubated for 30 min at 37 °C. Next, dye-quenched gelatin (DQ™-gelatin, Invitrogen, Carlsbad, CA, USA) was added at a final concentration of 2.5 µg/mL and the increase in fluorescence over time was measured with the CLARIOstar microplate reader (BMG Labtech, Ortenberg, Germany). For other MMPs, the OmniMMP substrate peptide (Mca-PLGL-Dpa-AR-NH2, cat. no. BML-P126-0001, Enzo Life Sciences, Farmingdale, NY, USA) was used at a final concentration of 2.5 µg/mL. For ADAM17 the fluorogenic peptide Mca-PLAQAV-Dpa-RSSSR-NH2 (ES003, R & D systems, Minneapolis, MO, USA) and for neutrophil elastase the fluorogenic substrate MeOSuc-AAPV-AMC (cat. no. 324740, Merck Millipore, Darmstadt, Germany) were used. Proteolytic activity was determined by linear regression of the fluorescence curve and the percentage inhibition was calculated through comparison with the positive control (no inhibitors). When testing supernatants from human neutrophils, the assay was performed in the presence of 20 µM neutrophil elastase inhibitor (Elastase Inhibitor IV, Calbiochem, Darmstadt, Germany).

SMILES	ex vivo stability: remaining MMP-9 inhibitory activity [1]	IC25 [2]	IC50 [2]	IC75 [2]	IC25 [3]	IC50 [3]	IC75 [3]
CC(C)[C@H](C(=O)O)N(CCNC(=O)c1ccccc1)S(=O)(=O)c1ccc(-c2ccccc2)cc1 [Compound 5]	remained detectable up to 24h later	232 nM	718 nM	2228 nM	359 nM	1410 nM	5.509 µM
CC(C)[C@H](C(=O)O)N(CCNC(=O)c1cccc(C(=O)NCCN([C@@H](C(=O)O)C(C)C)S(=O)(=O)c2ccc(-c3ccccc3)cc2)c1)S(=O)(=O)c1ccc(-c2ccccc2)cc1 [Compound 7]	remained detectable up to 24h later	10.5 nM	56 nM	296 nM	28 nM	182 nM	0.627 µM

Reference: article PMC7408547, “Bivalent Inhibitor with Selectivity for Trimeric MMP-9 Amplifies Neutrophil Chemotaxis and Enables Functional Studies on MMP-9 Proteoforms” (Cells, 2020)
